Experiments:
[1] = system: hypoxic-ischemic injury to one cerebral hemisphere; assay: Hypoxic-ischemic injury in adult rats, IGF-1 vs MK801 (Experiment 1); assay type: in vivo, Wistar rats; details: 50 μg IGF-1 intraventricular and/or 1 mg MK801, 2 hours after hypoxia; histology at 120 hours; controls 65%
Description: Adult Wistar rats (68 280-320 g) were prepared under 3% halothane/O2 anaesthesia. The right side carotid artery was ligated. A guide cannula was placed on the dura 8.2 mm anterior from bregma and 1.4 mm from midline on the right. The rats were allowed to recover from anaesthesia for 1 hour and were then placed in an incubator with humidity 85±5% and temperature 34±0.5° C. for 1 hour before hypoxia. Oxygen concentration was reduced and maintained at 6±0.2 O2 % hypoxia for 10 minutes. […] The intraventricular injections of 50 μg IGF-1 or vehicle alone were made into the right lateral ventricle at 1 μl/minute under 1.5%-2% halothane anaesthetic. Rats in each treatment group were infused simultaneously. The rats had free access to food during experiment and were euthanized at 120 hours after hypoxia with overdose of sodium pentobarbitol. Briefly, the brain was perfused in-situ with FAM (Formaldehyde, Acetic Acid, Methanol 1:1:8) then paraffin embedded. The sections were stained with Thionin and Acid Fuchsin. The presence of cortical infarction, defined as a region of tissue death or parenchymal pan-necrosis due to death of glia as well as neurons, was determined via light microscopy by an assessor who was blinded to the experimental groupings.

ischemic brain injury = assay: Ischemic brain injury in fetal sheep, postischemic seizures and neuronal loss (Experiment 2); assay type: in vivo
Description: The objective of this study was to compare the effects of treatment either with IGF-1 (see FIG. 2) and previously published work with the NMDA antagonist […] after an ischemic brain injury on postischemic seizures and neuronal losses in fetal sheep. (Tan et al Ann Neurol 32:677-682 (1992)).
The methods were those of an earlier study (Tan et al Ann Neurol 32:677-682 (1992)). Briefly, late gestation fetal sheep were chronically instrumented to record EEG, nuchal activity and blood pressure, and were then returned to the uterus. Cortical EEG activity nuchal activity and blood pressure were recorded throughout he experiment and the fetal brain subjected to 30 minutes of ischemia. Two hours later they were treated by an infusion of either 1 μg IGF-1 (n=6) or vehicle (artificial CSF) (n=6) into the lateral ventricle. Five days later the brains were fixed and assessed for neuronal loss as described previously (Tan et al Ann Neurol 32:677-682 (1992)).
In all cases the vehicle is the left-hand column and the effects of 1 μg of IGF-1 is on the right.

Compound | incidence of cortical infarction [1] | neuronal rescue (neuronal loss scores) (ischemic brain injury; 1 μg IGF-1 into lateral ventricle 2 hours after 30 minutes of ischemia, assessed five days later) | postischemic seizure activity (ischemic brain injury; 1 μg IGF-1 into lateral ventricle 2 hours after ischemia)
insulin-like growth factor 1 [IGF-1] | 33% | rescued neurons | did not suppress
C[C@]12N[C@H](Cc3ccccc31)c1ccccc12 [MK801, reference compound] | 50% |  | 
